Results: patent US20040224922A1, “Use of charged dextran as a mucoactive agent and methods and pharmaceutical compositions relating thereto” (priority 1999, published 2004)

Tests used:
[1] = Viscoelasticity of cystic fibrosis sputum in vitro by magnetic rheometry; parameters: species or system human; details: final concentration 8 mg/ml in CF sputum
Excerpt: FIG. 5 is a bar graph illustrating the effect of heparin and dextran sulfate on […] of sputum from 7 cystic fibrosis human patients as determined by magnetic rheometry, expressed as the average log G* over 1-100 rad/s after treatment with saline, heparin (MW 6000), Dextran Sulfate (MW 5000, about 17% sulphur by weight), heparin (dimer, highly (fully) sulfated, H-9267: C12H13NO19S3Na4), or heparin (dimer, low sulfate, partially de-sulfated H-9142, C12H18NO13SNa) to a final concentration of about 8 mg/ml (or […]) of sputum. […] The effect was similar to heparin, M.W. 6000.
Mucus Viscoelasticity Measurements: The magnetic microrheometer technique was used to measure the viscosity and elasticity of the dog mucus samples [21]. A […] steel ball was positioned in a 5-10 mL sample of mucus, and the motion of this sphere under the influence of an oscillating electromagnetic field gradient was used to determine the rheological properties of the mucus. The image of the steel ball was projected via a microscope onto a pair of photocells, whose output was amplified and transmitted to an oscilloscope. […]
(§1) The parameters of mucus viscoelasticity determined were the rigidity index or mechanical impedance, i.e. G*, reported here on a log scale, expressing the average vector sum of “viscosity+elasticity” over the frequency range 1-100 rad/s, and tan d, the mechanical loss tangent, expressing the ratio of viscous to elastic deformation. These viscoelastic parameters can be used to predict mucus clearability by ciliary and cough mechanisms, based on the measured Theological properties and observations of clearance from model studies.
(a) In vitro Sputum from 7 cystic fibrosis human patients were measured with regards to viscoelasticity after treatment with saline, heparin (MW˜6000), dextran sulfate (MW˜5000), heparin (dimer, highly sulfated), or heparin (dimer, de-sulfated) in accordance with the protocols for measuring viscoelasticity described in Example 1. […]

[2] = test system: healthy mongrel dogs; test: Tracheal mucus viscoelasticity by magnetic microrheometry after aerosol; assay type: in vivo, dog
Description: (§2) Seven healthy mongrel dogs (6 male/1 female), weight 21-28 kg, with no respiratory tract bacterial infections, were studied. The dogs were anesthetized with sodium pentobarbital (ca 30 mg/kg i.v., supplemented as required) and intubated with a cuffed endotracheal tube. They were administered Ringer aerosol first, followed by 6.5 mg/ml dextran sulfate, 20 mg/ml dextran sulfate, and 65 mg/ml dextran sulfate by aerosol. Each aerosolization was of 30 minutes duration, with a rest period of 30 minutes before the beginning of the next aerosol delivery. The aerosols were generated and delivered by a Pari LC STAR nebulizer using an air flow rate of 8 l/min, which results in an output of 0.58 ml/min and particles of […] mass median diameter. The nebulizer was loaded in each case with 10 ml of solution. The amount of solution remaining in the nebulizer after 30 minutes was recorded. A T-tube connection was provided to the endotracheal tube during aerosol delivery to ensure a minimal deadspace for ventilation and adequate delivery of the aerosol. The dogs breathed spontaneously throughout the experiment.
(§3) Tracheal mucus velocity (TMV) and tracheal potential difference (PD) was measured, and mucus samples were collected for each concentration of delivered drug. TMV was measured twice for each dose, i.e. during aerosolization, between 15 and 25 minutes from the start of aerosol delivery (designated as period-1), and 10-20 minutes after completion of aerosolization (designated as period-2). PD was measured during the period 5 to 10 minutes following each aerosol. Mucus was collected twice for each aerosol, once immediately after 30 minutes of aerosolization and a second time after an additional 30 minutes of aerosolization and a second time after an additional 30 minutes of spontaneous breathing.
All samples of dog mucus collected from endotracheal tubes were placed in 1.5 ml Eppendorf tubes for measurement of viscoelasticity by magnetic rheometry. After initial rheological testing, the mucus samples were preserved at −80° C. for subsequent analysis of collection rate and solids content.
Mucus Viscoelasticity Measurements: The magnetic microrheometer technique was used to measure the viscosity and elasticity of the dog mucus samples [21]. A […] steel ball was positioned in a 5-10 mL sample of mucus, and the motion of this sphere under the influence of an oscillating electromagnetic field gradient was used to determine the rheological properties of the mucus. The image of the steel ball was projected via a microscope onto a pair of photocells, whose output was amplified and transmitted to an oscilloscope. By plotting the displacement of the ball against the magnetic driving force, the viscoelastic properties of the mucus were ascertained.
as §1
(b) In vivo Seven healthy dogs were anesthetized, intubated and treated via aerosol with heparin sodium (MW 5000-6000) or dextran sulfate (MW 5000) and mucus viscoelasticity, transepithelial potential difference (PD) and tracheal mucus velocity (TMV) were determined, in accordance with the protocols described in Example 1 above. Non-lactated Ringer's solution was used as control. […] These changes were accompanied by a nonsignificant, upward trend in TMV, to approximately 130% of control. However, changes might be even more pronounced in animals with initially rigid mucus.

[3] = test system: healthy mongrel dogs; test: Tracheal mucociliary velocity (TMV) by charcoal particle displacement; assay type: in vivo, dog
Description: as §2, with “The dogs breathed spontaneously throughout the experiment.” left out
as §3, with “Mucus was collected twice for each aerosol, once immediately after 30 minutes of aerosolization and a second time after an additional 30 minutes of aerosolization and a second time after an additional 30 minutes of spontaneous breathing.” left out
Tracheal Mucociliary Velocity (TMV, mm/min): TMV was determined by observing the rate of charcoal marker particle transport in the lower trachea. Under bronchoscopic visualization, ca, 5 mL of a charcoal suspension (Charac-50 diluted in Ringer's 1:10) was deposited on a lateral surface of the lower trachea 1-2 cm above the carina, and the rate of cephalad progression of the leading edge of the charcoal spot was monitored over the course of 10 minutes by gradually withdrawing the bronchoscope and recording its position relative to the endotracheal tube. […]

[4] = test system: healthy mongrel dogs; test: Tracheal transepithelial potential difference (PD) by agar bridge technique after aerosol; assay type: in vivo, dog
Description: as §2
as §3, with “Mucus was collected twice for each aerosol, once immediately after 30 minutes of aerosolization and a second time after an additional 30 minutes of aerosolization and a second time after an additional 30 minutes of spontaneous breathing.” left out
Transepithelial Potential Difference (PD, -mV); PD was measured by using two flexible microelectrodes (agar bridges of PE 160 size) saturated with KCl connected to calomel half cells, one for reference and the other for testing. […] The PD value was recorded when a steady state, value was achieved and remained stable for a least 30 seconds. […]

[5] = test system: human subjects; details: oral, human subjects [34]; cited from earlier work
[6] = test system: healthy mongrel dogs; test: Solids content (% SC) of collected airway secretion; assay type: in vivo, dog
Description: as §2
as §3, with “Mucus was collected twice for each aerosol, once immediately after 30 minutes of aerosolization and a second time after an additional 30 minutes of aerosolization and a second time after an additional 30 minutes of spontaneous breathing.” left out
Solids content (wet:dry weight ratio): A drying apparatus and microbalance were used to calculate the dry weight and wet weight of the collected secretion, from which the percent solids content (% SC) was calculated. […] These dried samples were then reweighed, and % SC was calculated from ratio of dry to wet weight.

[7] = test system: healthy mongrel dogs; test: Tolerability / toxic effects of aerosol inhalation in dogs; assay type: in vivo, dog
Description: Seven healthy mongrel dogs (6 male/1 female), weight 21-28 kg, with no respiratory tract bacterial infections, were studied. The dogs were anesthetized with sodium pentobarbital (ca 30 mg/kg i.v., supplemented as required) and intubated with a cuffed endotracheal tube. They were administered Ringer aerosol first, followed by 6.5 mg/ml dextran sulfate, 20 mg/ml dextran sulfate, and 65 mg/ml dextran sulfate by aerosol. Each aerosolization was of 30 minutes duration, with a rest period of 30 minutes before the beginning of the next aerosol delivery. The aerosols were generated and delivered by a Pari LC STAR nebulizer using an air flow rate of 8 l/min, which results in an output of 0.58 ml/min and particles of 2.0 mm mass median diameter. The nebulizer was loaded in each case with 10 ml of solution. The amount of solution remaining in the nebulizer after 30 minutes was recorded. A T-tube connection was provided to the endotracheal tube during aerosol delivery to ensure a minimal deadspace for ventilation and adequate delivery of the aerosol. The dogs breathed spontaneously throughout the experiment.

[8] = test system: healthy mongrel dogs; test: Mucus collection weight (MCW) by endotracheal tube method; assay type: in vivo, dog
Description: as §2, §3
Mucus Collection Weight (MCW, mg/30 min): Tracheal mucus was collected by the endotracheal tube (ETT) method, which involves the removal of mucus adherent to the ETT after extubation. Mucus collections were performed twice after each aerosol, once by immediately removing the ETT following aerosol inhalation, and the second 30 minute after inhalation, after re-installing a clean ETT The mucus samples, which had been frozen, were thawed and weighed by microbalance, to determine MCW, an index of flux, and indirectly of the rate of secretion.

With heparin [heparin, MW 6000] the “viscoelasticity (average log G* over 1-100 rad/s) compared to saline control” value [1] was “similar”.
For heparin sodium [reference compound], the “mucus viscoelasticity (G*), % of control” value ([2]; 6.5 mg/ml aerosol, significantly decreased) was 36 % of control, the “TMV, % of control” value ([3]; 6.5 mg/ml aerosol, nonsignificant upward trend) was “approximately 130 % of control” and the “PD, % of control” value ([4]; 6.5 mg/ml aerosol, significant decrease, Ringer control) was 55.1 % of control.
In the case of `N[C@H]1C(O)O[C@H](CO)[C@@H](O[C@@H]2OC(C(=O)O)=C[C@H](O)[C@H]2OS(=O)(=O)O)[C@@H]1O` (stereo partly shown) [de-sulfated heparin dimer], the “viscoelasticity (average log G* over 1-100 rad/s) compared to saline control” value [1] is reported as “no significant improvement”.
For “dextran sulfate [dextran sulfate (m.w. 7000)]”, the absorbability [5] is given as “poor absorbablity”, the anticoagulant effect [5] is given as “little anticoagulant effect” and the other safety concerns [5] is given as “no other apparent safety concerns”.
With `O=C(O)C1=C[C@H](O)[C@@H](OS(=O)(=O)O)[C@H](O[C@H]2[C@H](O)[C@@H](NS(=O)(=O)O)C(O)O[C@@H]2COS(=O)(=O)O)O1` (stereo partly shown) [highly sulfated heparin dimer] the “viscoelasticity (average log G* over 1-100 rad/s) compared to saline control” value [1] was “significant decrease in viscoelasticity”.
In the case of Dextran sulfate, sodium salt [DexSO4], the “mucus recoil parameter, tan d” value ([2]; aerosol 6.5-65 mg/ml) is reported as “no significant changes”, the “average log G* compared with respective Ringer control” value ([2]; aerosol at 6.5 and 65 mg/ml) is reported as “significant decrease” and the “decrease in G* expressed as a factor” value ([2]; during 65 mg/ml aerosol) is reported as 2.61. The “mean decrease in average log G* (1-100 rad/s)” value ([2]; during 65 mg/ml aerosol, vs Ringer, p=0.021) was 0.42 log units, the “effective concentration range relative to neutral dextran (reduced viscoelastic modulus, predicted clearance)” value ([2]; in vivo, healthy dog mucus) was “half-log lower concentration range” and the “solids content (% SC) of collected fluid” value ([6]; 65 mg/ml-1 (Ringer-1: 6.16±0.20%), p=0.042) was 9.27±1.02%. For the same molecule, the “solids content (% SC) of collected fluid” value ([6]; 65 mg/ml-2 (Ringer-2: 6.87±0.92%), p=0.009) was 10.78%, the “effect on mucus % solids content” value ([6]; increasing concentrations 6.5, 20, 65 mg/ml) was “significant increase” and the “TMV, % of baseline” value ([3]; 6.5 mg/ml aerosol (first dose), non-significant, p=0.066) was 128 % of baseline. For the same molecule, the “change in mucociliary velocity (TMV)” value ([3]; aerosol 6.5-65 mg/ml, during and after aerosolization) was “no significant change”, the bronchial mucosal appearance ([7]; aerosol 6.5, 20, 65 mg/ml) was “remained normal” and the “cough or other side effects during inhalation” value ([7]; aerosol 6.5, 20, 65 mg/ml, 30 min each, all seven dogs) was “without significant cough or other side effects”. For the same molecule, the toxic effects ([7]; present study, aerosol in dogs) was “no toxic effects”, the “mean increase in PD (maximal change)” value ([4]; 65 mg/ml aerosol, vs Ringer control) was 9.86 mV and the “PD compared with Ringer control” value ([4]; after 30-minute aerosol at 6.5, 20 and 65 mg/ml, 7 dogs) was “increased significantly”. For the same molecule, the “mucus collection weight (MCW, mg/30 min)” value ([8]; 6.5 mg/ml-1 (collected immediately after aerosol), wet weight) was 4.35 ± 0.67 mg, the “mucus collection weight (MCW, mg/30 min)” value ([8]; 20 mg/ml-1, wet weight) was 4.47 ± 0.59 mg and the “mucus collection weight (MCW, mg/30 min)” value ([8]; 65 mg/ml-1, wet weight) was 5.64 ± 1.14 mg. For the same molecule, the “change in mucus collection weight with increasing concentration” value ([8]; 6.5-65 mg/ml aerosol) was “no change”.
